Experimental data reported in patent US10670605B2, “Cysteine reactive probes and uses thereof” (The Scripps Research Institute, priority 2015, dated 2020).
One block for each compound: values may come before it.

Experiments:
Assay in all cases: Competitive isoTOP-ABPP, cell lysates
Assay type in all cases: binding
PES1 C361 (O00541) = PES1 C361 (O00541) (Homo sapiens, UniProt O00541)
USP34 C1090 (Q70CQ2) = USP34 C1090 (Q70CQ2) (Homo sapiens, UniProt Q70CQ2); conditions: for isoTOP-ABPP ratio (reactivity profile), Q70CQ2_C1090: 500 μm in-vitro ramos
Sequence of USP34 C1090 (Q70CQ2) (Q70CQ2 whole entry): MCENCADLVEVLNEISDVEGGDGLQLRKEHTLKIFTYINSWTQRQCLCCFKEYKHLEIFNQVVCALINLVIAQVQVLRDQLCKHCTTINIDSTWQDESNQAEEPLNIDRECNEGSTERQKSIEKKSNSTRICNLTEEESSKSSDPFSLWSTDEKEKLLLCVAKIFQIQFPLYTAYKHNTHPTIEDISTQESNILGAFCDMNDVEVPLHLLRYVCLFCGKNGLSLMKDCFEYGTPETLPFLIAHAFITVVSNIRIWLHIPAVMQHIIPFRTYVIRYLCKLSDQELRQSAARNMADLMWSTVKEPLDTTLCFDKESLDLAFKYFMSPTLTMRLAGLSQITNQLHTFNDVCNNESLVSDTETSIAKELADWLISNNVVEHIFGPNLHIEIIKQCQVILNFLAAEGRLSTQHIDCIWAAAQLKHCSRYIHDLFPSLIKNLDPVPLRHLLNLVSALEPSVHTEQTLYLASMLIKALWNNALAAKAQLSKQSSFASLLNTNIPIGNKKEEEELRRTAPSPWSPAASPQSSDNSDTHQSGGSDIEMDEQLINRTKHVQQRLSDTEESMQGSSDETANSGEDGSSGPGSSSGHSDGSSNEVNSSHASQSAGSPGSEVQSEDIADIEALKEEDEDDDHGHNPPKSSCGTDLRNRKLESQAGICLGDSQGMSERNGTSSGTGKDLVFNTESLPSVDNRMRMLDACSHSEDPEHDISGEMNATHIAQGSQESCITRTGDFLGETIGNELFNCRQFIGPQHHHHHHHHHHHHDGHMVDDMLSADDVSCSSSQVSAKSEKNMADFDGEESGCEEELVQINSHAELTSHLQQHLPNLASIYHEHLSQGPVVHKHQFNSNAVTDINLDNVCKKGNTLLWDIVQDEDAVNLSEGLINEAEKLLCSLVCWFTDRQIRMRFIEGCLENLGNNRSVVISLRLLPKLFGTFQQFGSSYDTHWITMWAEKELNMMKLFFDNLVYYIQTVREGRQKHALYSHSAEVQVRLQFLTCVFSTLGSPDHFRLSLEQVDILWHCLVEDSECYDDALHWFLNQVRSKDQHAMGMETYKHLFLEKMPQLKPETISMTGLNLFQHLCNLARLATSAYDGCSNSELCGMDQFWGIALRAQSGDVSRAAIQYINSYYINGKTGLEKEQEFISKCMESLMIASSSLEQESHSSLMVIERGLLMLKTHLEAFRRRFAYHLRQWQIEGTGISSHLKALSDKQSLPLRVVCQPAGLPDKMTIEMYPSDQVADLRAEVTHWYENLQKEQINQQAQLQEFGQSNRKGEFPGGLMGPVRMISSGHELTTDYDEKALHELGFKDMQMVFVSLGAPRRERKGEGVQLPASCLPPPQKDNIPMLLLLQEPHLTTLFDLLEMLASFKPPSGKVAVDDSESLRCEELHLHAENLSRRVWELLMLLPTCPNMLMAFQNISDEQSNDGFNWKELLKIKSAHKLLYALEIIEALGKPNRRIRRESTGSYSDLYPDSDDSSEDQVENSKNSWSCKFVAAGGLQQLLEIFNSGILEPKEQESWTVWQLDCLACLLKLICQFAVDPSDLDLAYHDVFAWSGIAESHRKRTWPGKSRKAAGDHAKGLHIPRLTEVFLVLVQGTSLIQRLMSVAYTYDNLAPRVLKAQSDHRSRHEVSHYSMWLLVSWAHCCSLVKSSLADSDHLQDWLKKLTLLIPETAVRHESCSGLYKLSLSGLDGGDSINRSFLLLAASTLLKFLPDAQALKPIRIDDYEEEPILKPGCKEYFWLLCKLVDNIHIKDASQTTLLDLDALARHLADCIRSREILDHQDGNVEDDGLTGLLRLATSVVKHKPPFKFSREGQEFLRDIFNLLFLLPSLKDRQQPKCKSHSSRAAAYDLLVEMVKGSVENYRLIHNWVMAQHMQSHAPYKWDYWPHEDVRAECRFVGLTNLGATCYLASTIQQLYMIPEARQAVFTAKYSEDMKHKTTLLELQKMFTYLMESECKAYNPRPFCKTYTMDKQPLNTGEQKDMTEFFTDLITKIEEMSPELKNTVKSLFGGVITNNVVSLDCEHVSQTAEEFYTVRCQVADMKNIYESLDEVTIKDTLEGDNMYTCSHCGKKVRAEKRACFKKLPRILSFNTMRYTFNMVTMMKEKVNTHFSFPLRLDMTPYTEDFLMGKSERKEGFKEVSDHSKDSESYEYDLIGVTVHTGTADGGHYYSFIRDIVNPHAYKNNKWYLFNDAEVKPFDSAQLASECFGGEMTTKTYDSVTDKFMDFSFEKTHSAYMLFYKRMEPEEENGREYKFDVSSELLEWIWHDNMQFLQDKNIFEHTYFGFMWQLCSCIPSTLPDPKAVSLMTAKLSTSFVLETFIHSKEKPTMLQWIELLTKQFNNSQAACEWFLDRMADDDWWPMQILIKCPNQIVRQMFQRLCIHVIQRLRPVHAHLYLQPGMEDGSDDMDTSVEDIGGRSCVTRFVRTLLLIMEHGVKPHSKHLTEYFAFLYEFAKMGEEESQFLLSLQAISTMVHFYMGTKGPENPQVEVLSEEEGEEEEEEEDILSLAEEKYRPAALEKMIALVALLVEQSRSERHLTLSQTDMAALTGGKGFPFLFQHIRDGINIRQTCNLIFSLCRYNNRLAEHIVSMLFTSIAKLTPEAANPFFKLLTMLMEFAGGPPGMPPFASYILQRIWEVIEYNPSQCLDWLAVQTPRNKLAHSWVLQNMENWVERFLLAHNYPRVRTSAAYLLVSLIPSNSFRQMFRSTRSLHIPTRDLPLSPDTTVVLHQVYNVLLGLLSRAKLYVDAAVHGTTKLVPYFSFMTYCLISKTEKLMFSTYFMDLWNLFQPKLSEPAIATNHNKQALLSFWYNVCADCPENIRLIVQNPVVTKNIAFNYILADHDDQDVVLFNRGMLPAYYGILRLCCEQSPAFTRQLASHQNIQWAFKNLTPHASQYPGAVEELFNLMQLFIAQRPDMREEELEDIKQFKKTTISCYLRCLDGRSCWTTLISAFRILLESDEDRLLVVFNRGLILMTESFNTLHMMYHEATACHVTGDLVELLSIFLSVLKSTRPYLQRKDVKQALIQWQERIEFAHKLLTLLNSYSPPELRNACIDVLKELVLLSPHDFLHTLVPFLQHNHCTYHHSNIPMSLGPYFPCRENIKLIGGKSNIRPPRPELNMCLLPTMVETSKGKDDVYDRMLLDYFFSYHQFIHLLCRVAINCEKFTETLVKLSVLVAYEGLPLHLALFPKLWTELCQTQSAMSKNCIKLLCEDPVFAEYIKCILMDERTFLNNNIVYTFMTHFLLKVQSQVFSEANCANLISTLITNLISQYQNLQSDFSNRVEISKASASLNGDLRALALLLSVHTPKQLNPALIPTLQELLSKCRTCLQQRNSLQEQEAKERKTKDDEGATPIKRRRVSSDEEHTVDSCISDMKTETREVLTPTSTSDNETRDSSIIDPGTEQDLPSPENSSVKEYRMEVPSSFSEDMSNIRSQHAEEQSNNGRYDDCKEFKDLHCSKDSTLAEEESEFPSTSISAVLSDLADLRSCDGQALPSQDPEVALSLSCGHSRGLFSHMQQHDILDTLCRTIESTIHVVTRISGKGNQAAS

USP22 C44 (Q9UPT9) = biological target: T1, USP22 C44 (Q9UPT9) (Homo sapiens, UniProt Q9UPT9)
T1 sequence (Q9UPT9 1-525): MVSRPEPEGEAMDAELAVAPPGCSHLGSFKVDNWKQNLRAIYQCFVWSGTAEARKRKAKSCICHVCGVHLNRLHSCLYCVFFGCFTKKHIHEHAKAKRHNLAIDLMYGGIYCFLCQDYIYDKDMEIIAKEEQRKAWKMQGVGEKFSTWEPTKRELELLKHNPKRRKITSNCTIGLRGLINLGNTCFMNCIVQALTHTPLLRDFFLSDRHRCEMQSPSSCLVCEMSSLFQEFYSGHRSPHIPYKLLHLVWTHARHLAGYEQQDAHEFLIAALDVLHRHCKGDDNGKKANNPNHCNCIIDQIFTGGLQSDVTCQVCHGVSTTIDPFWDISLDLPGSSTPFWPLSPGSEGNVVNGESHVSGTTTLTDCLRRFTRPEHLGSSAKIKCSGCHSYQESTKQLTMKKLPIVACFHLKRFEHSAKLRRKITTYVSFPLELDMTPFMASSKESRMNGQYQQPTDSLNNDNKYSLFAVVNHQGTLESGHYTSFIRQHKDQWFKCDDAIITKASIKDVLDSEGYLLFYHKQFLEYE

ZAP70 C117 (P43403) = biological target: T2, ZAP70 C117 (P43403) (Homo sapiens, UniProt P43403); conditions: for isoTOP-ABPP ratio, P43403_C117: 500 μM, invitro; for isoTOP-ABPP ratio (reactivity profile), P43403_C117: 500 μm in-vitro ramos
T2 sequence (P43403 1-619): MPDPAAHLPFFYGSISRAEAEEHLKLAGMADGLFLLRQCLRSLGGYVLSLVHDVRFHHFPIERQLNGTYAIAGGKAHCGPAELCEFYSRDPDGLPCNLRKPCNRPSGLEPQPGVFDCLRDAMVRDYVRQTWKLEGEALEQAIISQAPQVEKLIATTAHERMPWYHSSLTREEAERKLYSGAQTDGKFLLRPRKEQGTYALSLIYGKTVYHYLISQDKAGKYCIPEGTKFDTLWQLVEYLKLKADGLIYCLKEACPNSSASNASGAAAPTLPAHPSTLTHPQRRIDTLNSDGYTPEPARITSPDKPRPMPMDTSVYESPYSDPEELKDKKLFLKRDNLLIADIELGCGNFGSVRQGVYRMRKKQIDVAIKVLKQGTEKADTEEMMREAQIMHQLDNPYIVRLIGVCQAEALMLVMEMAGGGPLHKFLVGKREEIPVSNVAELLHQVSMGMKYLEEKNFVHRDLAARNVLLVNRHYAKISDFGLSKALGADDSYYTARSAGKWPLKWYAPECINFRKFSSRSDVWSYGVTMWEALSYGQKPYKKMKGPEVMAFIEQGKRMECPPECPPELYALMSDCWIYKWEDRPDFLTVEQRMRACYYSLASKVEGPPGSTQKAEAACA

Sequence of PES1 C361 (O00541) (O00541 whole entry, looked up): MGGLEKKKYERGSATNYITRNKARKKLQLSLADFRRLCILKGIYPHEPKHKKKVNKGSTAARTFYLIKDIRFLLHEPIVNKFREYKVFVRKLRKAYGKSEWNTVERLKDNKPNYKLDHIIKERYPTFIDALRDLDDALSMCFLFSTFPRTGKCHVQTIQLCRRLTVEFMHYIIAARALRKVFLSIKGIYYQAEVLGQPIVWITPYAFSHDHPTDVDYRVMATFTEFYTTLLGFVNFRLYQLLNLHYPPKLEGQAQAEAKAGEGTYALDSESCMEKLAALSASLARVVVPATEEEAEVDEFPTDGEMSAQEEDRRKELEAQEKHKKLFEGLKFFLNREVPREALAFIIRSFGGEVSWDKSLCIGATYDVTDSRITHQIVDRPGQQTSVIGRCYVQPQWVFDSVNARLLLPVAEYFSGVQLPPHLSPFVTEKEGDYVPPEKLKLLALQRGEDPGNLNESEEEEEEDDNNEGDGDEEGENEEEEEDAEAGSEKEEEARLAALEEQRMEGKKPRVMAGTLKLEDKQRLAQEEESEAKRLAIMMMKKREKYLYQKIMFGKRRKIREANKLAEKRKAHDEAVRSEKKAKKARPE

Compound: O=C(CCl)Nc1cc(C(F)(F)F)cc(C(F)(F)F)c1 [compound 3]
R value (DMSO/fragment) (PES1 C361 (O00541); 500 μM, in vitro, MDA-MB-231): 1.5
R value (DMSO/fragment) (USP34 C1090 (Q70CQ2); 500 μM, invitro, ramos): 19.7

Compound: C=CC(=O)N(c1ccccc1)c1ccc(Br)cc1 [compound 5]
isoTOP-ABPP ratio, Q9UPT9_C44 (USP22 C44 (Q9UPT9); 500 μM, invitro, ramos): 20.0
isoTOP-ABPP ratio, Q70CQ2_C1090 (USP34 C1090 (Q70CQ2); 500 μM, invitro, ramos): 20.0

Compound: O=C(CCl)N1CCN(S(=O)(=O)c2ccccc2F)CC1 [compound 10]
isoTOP-ABPP ratio, P43403_C117 (ZAP70 C117 (P43403); 231): 20.0
isoTOP-ABPP ratio, P43403_C117 (ZAP70 C117 (P43403); ramos): 20.0

Compound: C=CC(=O)N(Cc1cccnc1)c1ccc(Oc2ccccc2)c(C(F)(F)F)c1 [compound 15]
isoTOP-ABPP ratio (reactivity profile), P43403_C117 (ZAP70 C117 (P43403)): 20.0

Compound: O=C(CCl)N1CCC(C(O)(c2ccccc2)c2ccccc2)CC1 [compound 20]
isoTOP-ABPP ratio (reactivity profile), O00541_C361 (PES1 C361 (O00541); 500 μm in-vitro ramos): 20.0
isoTOP-ABPP ratio (reactivity profile), O00541_C361 (PES1 C361 (O00541); 500 μm in-vitro ramos_231): 20.0
isoTOP-ABPP ratio (reactivity profile), Q70CQ2_C1090 (USP34 C1090 (Q70CQ2)): 2.7
isoTOP-ABPP ratio (reactivity profile), P43403_C117 (ZAP70 C117 (P43403)): 20.0

Results, then the compound that gave them:

isoTOP-ABPP ratio (reactivity profile), Q70CQ2_C1090 (USP34 C1090 (Q70CQ2)): 0.9
Compound: O=C(CCl)NC12CC3CC(CC(C3)C1)C2 [compound 21]

isoTOP-ABPP ratio (reactivity profile), O00541_C361 (PES1 C361 (O00541); 500 μm in-vitro ramos): 1.1
Compound: N#C/C(=C\c1cc(C(F)(F)F)cc(C(F)(F)F)c1)C(N)=O [compound 23]

isoTOP-ABPP ratio (reactivity profile), Q9UPT9_C44 (USP22 C44 (Q9UPT9); 500 μm in-vitro ramos): 1.2
isoTOP-ABPP ratio (reactivity profile), Q9UPT9_C44 (USP22 C44 (Q9UPT9); 500 μm in-vitro ramos_231): 20.0
Compound: CC(C)CCOCCNC(=O)CCl [compound 27]

isoTOP-ABPP ratio (reactivity profile), P43403_C117 (ZAP70 C117 (P43403)): 1.1
Compound: COc1ccccc1OCCNC(=O)CCl [compound 28]

isoTOP-ABPP reactivity ratio, Q9UPT9_C44 (USP22 C44 (Q9UPT9); 500 μm, in-vitro_ramos): 1.7
Compound: CCN(CC)c1ccc(S(N)(=O)=O)cc1NC(=O)CCl [compound 30]

isoTOP-ABPP reactivity profile ratio, Q9UPT9_C44 (USP22 C44 (Q9UPT9); 500 μm, in-vitro_ramos): 2.1
Compound: COc1cc(NC(=O)CCl)cc(OC)c1 [compound 43]
